The source of these data is PubChem BioAssay AID328 (DTP/NCI, 2004).

Values joined by “and” are separate entries in the source; they are usually repeats but may differ in a detail not shown here. Equal values may be shown once. Toxic doses and inconclusive results are not listed.

The test relates to BDF1 mice, P388 leukemia ip, median survival T/C. Kind of test: NCI In Vivo Anticancer Drug Screen. Data for tumor model P388 Leukemia (intraperitoneal) in B6D2F1 (BDF1) mice. Conditions: endpoint: median survival time, higher = longer survival. The method, boiled down:
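Transplantable tumour in mice; compound vs vehicle dosing; survival scored; ratio of treated to control reported.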

Setting [1] is: dose: 50.0 mg/kg/injection, schedule: Q01DX009 (ip), vehicle: Klucel (hydroxypropylcellulose) (HPC).
Where [2] appears, read: dose: 100.0 mg/kg/injection, schedule: Q01DX009 (ip), vehicle: Klucel (hydroxypropylcellulose) (HPC).
Where [3] appears, read: dose: 200.0 mg/kg/injection, schedule: Q01DX009 (ip), vehicle: Klucel (hydroxypropylcellulose) (HPC).

Consider `COc1ccc(C(=O)c2cccs2)cc1`, for which the T/C was 100 % of control (dose: 100.0 mg/kg/injection, schedule: Q04DX003 (ip), vehicle: saline with Tween-80); 100 % of control (dose: 200.0 mg/kg/injection, schedule: Q04DX003 (ip), vehicle: saline with Tween-80); 86 % of control (dose: 400.0 mg/kg/injection, schedule: Q04DX003 (ip), vehicle: saline with Tween-80).

On to `CC[P+]1(c2ccccc2)CCCc2ccc3ccccc3c21` (stereo unspecified), for which the T/C reads like this: (dose: 1.56 mg/kg/injection, schedule: Q01DX009 (ip), vehicle: saline) 116 % of control; (dose: 3.12 mg/kg/injection, schedule: Q01DX009 (ip), vehicle: saline) 120 % of control; (dose: 30.0 mg/kg/injection, schedule: Q01DX009 (ip), vehicle: saline) 90 % of control.

`O=C1Cc2cc(=C(c3ccccc3)c3ccccc3)ccc2=C1c1ccccc1`: the T/C reads like this: (dose: 50.0 mg/kg/injection, schedule: Q01DX005 (ip), vehicle: saline with Tween-80) 93 % of control; (dose: 100.0 mg/kg/injection, schedule: Q01DX005 (ip), vehicle: saline with Tween-80) 96 % of control; (dose: 200.0 mg/kg/injection, schedule: Q01DX005 (ip), vehicle: saline with Tween-80) 91 % of control.

Take `C[Si](C)(C)O/C=C1\CCCCC1=O`: the T/C (dose: 25.0 mg/kg/injection, schedule: Q01DX009 (ip), vehicle: saline with Tween-80) was 110 % of control and the T/C (dose: 100.0 mg/kg/injection, schedule: Q01DX009 (ip), vehicle: saline with Tween-80) was 117 % of control.

For `Cn1c(=O)c2c(ncn2C)n(C)c1=O`, the T/C is, setting by setting: (dose: 50.0 mg/kg/injection, schedule: Q01DX010 (ip), vehicle: saline) 100 % of control; (dose: 100.0 mg/kg/injection, schedule: Q01DX010 (ip), vehicle: saline) 100 % of control; (dose: 200.0 mg/kg/injection, schedule: Q01DX010 (ip), vehicle: saline) 104 % of control.

As to `C=CC[NH-].C=CC[NH-].CC(=O)CC(C)=O.CC(=O)CC(C)=O.[Ni+2]`, the T/C runs as follows: (dose: 6.25 mg/kg/injection, schedule: Q04DX002 (ip), vehicle: saline) 107 % of control; (dose: 12.5 mg/kg/injection, schedule: Q04DX002 (ip), vehicle: saline) 100 % of control; (dose: 25.0 mg/kg/injection, schedule: Q04DX002 (ip), vehicle: saline) 117 % of control.

Consider `O=C(O)COc1c(Br)cc(Br)cc1Br`, for which the T/C under setting [1] was 90 % of control, the T/C under setting [2] was 90 % of control and the T/C under setting [3] was 110 % of control.

Regarding `c1ccc(C[n+]2ccc(-c3cc[n+](Cc4ccccc4)cc3)cc2)cc1`, the T/C is 86 % of control (dose: 1.25 mg/kg/injection, schedule: Q01DX010 (ip), vehicle: saline); 104 % of control (dose: 156.0 micrograms/kg/injection, schedule: Q01DX010 (ip), vehicle: saline); 104 % of control (dose: 313.0 micrograms/kg/injection, schedule: Q01DX010 (ip), vehicle: saline); 104 % of control (dose: 625.0 micrograms/kg/injection, schedule: Q01DX010 (ip), vehicle: saline).

In the case of `OCCN(CCO)c1cc(OCc2ccccc2)cc(OCc2ccccc2)c1`, the T/C is 103 % of control (dose: 6.25 mg/kg/injection, schedule: Q01DX009 (ip), vehicle: water); 99 % of control (dose: 12.5 mg/kg/injection, schedule: Q01DX009 (ip), vehicle: water); 91 % of control and 103 % of control (dose: 25.0 mg/kg/injection, schedule: Q01DX009 (ip), vehicle: water); 100 % of control (dose: 50.0 mg/kg/injection, schedule: Q01DX009 (ip), vehicle: water); 100 % of control (dose: 50.0 mg/kg/injection, schedule: Q04DX003 (ip), vehicle: water); 100 % of control (dose: 100.0 mg/kg/injection, schedule: Q04DX003 (ip), vehicle: water). For the same compound, the T/C is, setting by setting: (dose: 200.0 mg/kg/injection, schedule: Q04DX003 (ip), vehicle: water) 95 % of control; (dose: 400.0 mg/kg/injection, schedule: Q04DX003 (ip), vehicle: water) 100 % of control.

For the compound `CC(=O)C(=O)NC1/C=C(C)\C=C/C(O)C/C=C(C)\C=C/C(O)CC2OC(=O)C1(C)C(=O)C2C` (stereo unspecified), the T/C is 109 % of control and 122 % of control under setting [1]; 153 % of control and 163 % of control under setting [3]; 171 % of control (dose: 400.0 mg/kg/injection, schedule: Q01DX009 (ip), vehicle: Klucel (hydroxypropylcellulose) (HPC)).

`OCC1(O)CCC1`: the T/C (dose: 75.0 mg/kg/injection, schedule: Q01DX009 (ip), vehicle: saline) is 95 % of control; the T/C (dose: 100.0 mg/kg/injection, schedule: Q04DX003 (ip), vehicle: saline) is 96 % of control; the T/C (dose: 150.0 mg/kg/injection, schedule: Q01DX009 (ip), vehicle: saline) is 104 % of control; the T/C (dose: 200.0 mg/kg/injection, schedule: Q04DX003 (ip), vehicle: saline) is 103 % of control; the T/C (dose: 300.0 mg/kg/injection, schedule: Q01DX009 (ip), vehicle: saline) was 109 % of control; the T/C (dose: 400.0 mg/kg/injection, schedule: Q04DX003 (ip), vehicle: saline) is 100 % of control.

For the compound `O=S1(=O)CCN(CCc2ccccc2)CC1`, the T/C runs as follows: under setting [1], 94 % of control; under setting [2], 90 % of control; under setting [3], 96 % of control.

For `COC(=O)[C@H]1[C@H]2C[C@@H]3c4[nH]c5cc(OC)ccc5c4CCN3C[C@H]2C[C@@H](OC(=O)c2cc(OC)c(OC)c(OC)c2)[C@@H]1OC`, where the note is “dose: 0.37 mg/kg/injection, schedule: Q01DX009 (ip), vehicle: saline with Tween-80”, the T/C is 95 % of control.

Consider `COC1=C(OC)C23CCc4ccc(OC)c(O)c4C2(CCN3C)CC1=O` (stereo unspecified), for which the T/C runs as follows: (dose: 50.0 mg/kg/injection, schedule: Q01DX010 (ip), vehicle: carboxymethylcellulose (CMC)) 88 % of control; (dose: 100.0 mg/kg/injection, schedule: Q01DX010 (ip), vehicle: carboxymethylcellulose (CMC)) 100 % of control.

With `O=[N+]([O-])c1ccc2c(c1)C(Br)c1ccccc1-2` (stereo unspecified), the T/C was 90 % of control under setting [1], 118 % of control under setting [2] and 118 % of control under setting [3].

As for `O=C(NP(=O)(N1CC1)N1CC1)c1cc(I)ccc1I`, the T/C runs as follows: (dose: 1.0 mg/kg/injection, schedule: Q01DX001 (oral), vehicle: saline) 102 % of control; (dose: 1.0 mg/kg/injection, schedule: Q01DX009 (ip), vehicle: saline with Tween-80) 110 % of control; (dose: 1.0 mg/kg/injection, schedule: Q01DX009 (ip), vehicle: saline) 104 % of control and 202 % of control; (dose: 2.0 mg/kg/injection, schedule: Q01DX001 (oral), vehicle: saline) 100 % of control; (dose: 2.0 mg/kg/injection, schedule: Q01DX009 (ip), vehicle: saline with Tween-80) 101 % of control; (dose: 4.0 mg/kg/injection, schedule: Q01DX001 (oral), vehicle: saline) 101 % of control. Besides, the T/C is, setting by setting: (dose: 4.0 mg/kg/injection, schedule: Q01DX009 (ip), vehicle: saline with Tween-80) 105 % of control; (dose: 4.0 mg/kg/injection, schedule: Q01DX009 (ip), vehicle: saline) 96 % of control and 222 % of control; (dose: 8.0 mg/kg/injection, schedule: Q01DX001 (oral), vehicle: saline) 113 % of control; (dose: 8.0 mg/kg/injection, schedule: Q01DX009 (ip), vehicle: saline) 232 % of control and 150 % of control; (dose: 16.0 mg/kg/injection, schedule: Q01DX001 (oral), vehicle: saline) 113 % of control; (dose: 16.0 mg/kg/injection, schedule: Q01DX009 (ip), vehicle: saline with Tween-80) 214 % of control. The T/C (dose: 16.0 mg/kg/injection, schedule: Q01DX009 (ip), vehicle: saline) is 177 % of control and 191 % of control; the T/C (dose: 32.0 mg/kg/injection, schedule: Q01DX009 (ip), vehicle: saline with Tween-80) is 177 % of control; the T/C (dose: 32.0 mg/kg/injection, schedule: Q01DX009 (ip), vehicle: saline) is 93 % of control and 207 % of control; the T/C (dose: 64.0 mg/kg/injection, schedule: Q01DX001 (oral), vehicle: saline) was 150 % of control; the T/C (dose: 64.0 mg/kg/injection, schedule: Q01DX009 (ip), vehicle: saline with Tween-80) was 112 % of control; the T/C (dose: 128.0 mg/kg/injection, schedule: Q01DX009 (ip), vehicle: saline) is 123 % of control. Also, the T/C (dose: 256.0 mg/kg/injection, schedule: Q01DX001 (oral), vehicle: saline) was 161 % of control.

As for `C[N+](C)(C)C12CCCCCC1SC2` (stereo unspecified), the T/C runs as follows: (dose: 25.0 mg/kg/injection, schedule: Q04DX003 (ip), vehicle: saline) 106 % of control; (dose: 50.0 mg/kg/injection, schedule: Q04DX003 (ip), vehicle: saline) 101 % of control.
